Key:
Assay type in all cases: functional
[1] = Cytotoxicity against human melanoma cells after 48 hrs by coulter counter analysis; settings: Melanoma cell
[2] = Cytotoxicity against human non-small cell lung cancer cells after 48 hrs by coulter counter analysis; settings: Cancer cell lines
[3] = Cytotoxicity against human colon cancer cells after 48 hrs by coulter counter analysis; settings: Cancer cell lines
[4] = Cytotoxicity against human leukemia cells after 48 hrs by coulter counter analysis; settings: Leukemia cell
[5] = Cytotoxicity against human CNS cancer cells after 48 hrs by coulter counter analysis; settings: Cancer cell lines
[6] = Cytotoxicity against human ovarian cancer cells after 48 hrs by coulter counter analysis; settings: Cancer cell lines
[7] = Cytotoxicity against human prostate cancer cells after 48 hrs by coulter counter analysis; settings: Cancer cell lines
[8] = Cytotoxicity against human breast cancer cells after 48 hrs by coulter counter analysis; settings: Cancer cell lines
[9] = Cytotoxicity against human renal cancer cells after 48 hrs by coulter counter analysis; settings: Cancer cell lines
[10] = read-out: LC50 (the source's name)

O=c1[nH]cc(F)c(=O)[nH]1 [FLUOROURACIL]
GI50 [1]: 70.6 µM
TGI [1]: > 100 µM
GI50 [2]: > 100 µM
TGI [2]: > 100 µM
CC50 [2, 10]: > 100 µM
GI50 [3]: 8.4 µM
TGI [3]: > 100 µM
CC50 [3, 10]: > 100 µM
TGI [4]: > 100 µM
TGI [5]: > 100 µM
CC50 [5, 10]: > 100 µM
GI50 [6]: 61.4 µM
TGI [6]: > 100 µM
GI50 [7]: 22.7 µM
TGI [7]: > 100 µM
CC50 [7, 10]: > 100 µM
GI50 [8]: 76.4 µM
TGI [8]: > 100 µM
GI50 [9]: 45.6 µM
TGI [9]: > 100 µM

Reference: ChEMBL document CHEMBL2396621, “Design, synthesis and biological evaluation of 2-mercapto-3-phenethylquinazoline bearing anilide fragments as potential antitumor agents: molecular docking study” (2013)
